Measurements taken from publication PMC12268638, “Structural insights into the catalytic cycle of G protein–coupled receptor kinase 5 and a possible regulatory site for potassium ion” (The Journal of Biological Chemistry, 2025).
Read-outs that look alike come from different tables or passages of the source.

Key:
human GRK5WT = target: T1, human GRK5WT (Homo sapiens, UniProt P34947); assay: GRK kinase inhibition assay ([γ-32P]-ATP phosphorylation of tubulin or Rho*); format: biochemical; details: for change in inhibition potency caused by K3Cit: GRK5 phosphorylation of tubulin and Rho*
T1 construct: human GRK5WT or GRK5D311N (residues 1–590 followed by a hexahistidine tag); hexahistidine (C); made in house; host or cells: E. coli Rosetta (DE3)
Procedure: GRK inhibition assays were performed in 20 mM Hepes (pH 7.0), 2 mM MgCl2, 0.025% n-dodecyl-β-D-maltoside with 50 nM human GRK5WT as purified previously. […] A range of salt concentrations was added 30 s prior to 5 min reactions initiated by exposing samples to light followed by addition of 5 μM ATP supplemented with radioactive [γ-^32P]-ATP at 60 Ci/mmol (PerkinElmer Life Sciences) at room temperature. […] Reactions were quenched with 4X SDS loading buffer, separated in SDS-PAGE, dried, and read by phosphorimaging and then quantified via a Personal Molecular Imager and Quantity One 1-D Analysis Software. […] At least three replicates were obtained to calculate the mean and standard deviation of IC50 values. See Figure S4 for representative raw and processed data.

GRK5 = target: T2, GRK5 (Homo sapiens, UniProt P34947); assay: Differential scanning fluorimetry thermal shift assay; format: binding; details: for increase of Tm of GRK5 upon ligand binding: relative to unliganded GRK5, ligand 5 mM, 2 μM GRK5; for effect of salt on Tm of ATP·Mg2+-bound GRK5 / effect of salt on Tm of GRK5: increasing salt concentrations; for effect of salt on Tm of GRK5: no ligand
T2 construct: human GRK5WT or GRK5D311N (residues 1–590 followed by a hexahistidine tag); hexahistidine (C); made in house; host or cells: E. coli Rosetta (DE3)
Procedure: Samples were mixed with Protein Thermal Shift dye to measure unfolding as a function of temperature. The Tm values were subtracted by the Tm of GRK5 in the same condition without the addition of salt to obtain ΔTm. Error bars correspond to SD (box) from three or more replicates (circles). […] Orange corresponds to GRK5 with Sgv and pink with AMP in buffer alone (20 mM Hepes [pH 7.2], 2 mM MgCl2). A one-tailed t test was used to determine significance (ns: p > 0.05, ∗p ≤ 0.05, ∗∗p ≤ 0.01, ∗∗∗p ≤ 0.001, and ∗∗∗∗p ≤ 0.0001). GRK, G protein–coupled receptor kinase; ns, not significant; Sgv, sangivamycin.
Full-length WT GRK5, GRK2, or GRK6 at a final concentration of 2 μM in the absence or the presence of different ligands were mixed with the Protein Thermal Shift Dye at a final concentration of 1X in buffer containing 20 mM Hepes (pH 7.2), 2 mM MgCl2, and 1 mM TCEP in addition to different concentrations of salts. The melting points were measured using a QuantStudio5 Real-Time PCR System in a 384-well transparent plate with a final reaction volume of 10 μl per well. […] Ligands including ATP, AMP–PNP, ADP, AMP, and Sgv were added at a final concentration of 5 mM. Readouts were measured and analyzed with Protein Thermal Shift Software to obtain Boltzmann Tm values. At least three replicates of individual runs from the same preparation of protein were performed to obtain the mean and standard deviation of Tm values.

GRK2 = target: T3, GRK2 (Homo sapiens, UniProt P25098, S670A); assay: GRK kinase inhibition assay ([γ-32P]-ATP phosphorylation of tubulin); format: biochemical; details: substrate tubulin; for IC50: mean ± SD
T3 construct: Full-length WT GRK5, GRK2, or GRK6 at a final concentration of 2 μM; made in house; host or cells: Sf9 insect cells
T3 sequence (P25098 1-689 S670A): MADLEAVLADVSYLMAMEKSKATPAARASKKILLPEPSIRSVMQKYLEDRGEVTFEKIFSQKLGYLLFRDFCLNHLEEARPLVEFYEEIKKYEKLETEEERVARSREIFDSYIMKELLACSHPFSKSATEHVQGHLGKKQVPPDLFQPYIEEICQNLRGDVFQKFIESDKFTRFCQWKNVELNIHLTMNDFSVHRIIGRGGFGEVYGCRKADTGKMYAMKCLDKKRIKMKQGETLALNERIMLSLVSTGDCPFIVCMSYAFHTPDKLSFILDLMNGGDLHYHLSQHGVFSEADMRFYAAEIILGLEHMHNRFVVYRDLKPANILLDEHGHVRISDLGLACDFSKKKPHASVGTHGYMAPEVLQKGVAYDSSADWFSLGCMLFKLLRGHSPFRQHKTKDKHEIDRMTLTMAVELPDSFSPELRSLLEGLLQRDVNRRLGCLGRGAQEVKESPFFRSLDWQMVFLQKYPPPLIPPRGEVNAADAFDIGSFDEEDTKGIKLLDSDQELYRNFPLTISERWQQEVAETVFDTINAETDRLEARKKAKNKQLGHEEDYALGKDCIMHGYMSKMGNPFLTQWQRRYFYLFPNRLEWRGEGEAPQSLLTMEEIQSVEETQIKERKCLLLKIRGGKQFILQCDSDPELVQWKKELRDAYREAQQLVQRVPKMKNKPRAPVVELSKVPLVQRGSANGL
Procedure: Following the protocol in Ref. ([19]), pMAL-vector plasmids bearing DNA encoding human GRK5WT or GRK5D311N (residues 1–590 followed by a hexahistidine tag) were transfected into E. coli Rosetta (DE3) and induced with isopropyl β-D-1-thiogalactopyranoside. Cells lysed using an Emulsiflex-C3 were treated with DNase I and 1 mM MgCl2 at room temperature for 10 min before centrifugation at 40,000g. GRK5 in the soluble fraction was then loaded onto a Ni^2+–NTA column for metal-affinity purification. Eluted GRK5 fractions were then loaded onto a tandem HiTrap Q HP-HiTrap SP HP column to capture impurities in the Q HP column, and GRK5 was eluted from the SP column using an NaCl concentration gradient from 100 to 600 mM. […] Purified GRK5 was used directly in crystallization or flash-frozen with liquid nitrogen and stored at −80 °C for later usage. Human GRK2S670A and GRK6FL_pal(−) are expressed in Sf9 insect cells and purified as described previously ([26], [31]). The S670A mutation in GRK2 eliminates a heterogenous mitogen-activated kinase phosphorylation site, and GRK6FL_pal(−) was used to remove palmitoylation sites in order to make expression and purification easier.
GRK inhibition assays were performed in 20 mM Hepes (pH 7.0), 2 mM MgCl2, 0.025% n-dodecyl-β-D-maltoside with 50 nM human GRK5WT as purified previously. […] A range of salt concentrations was added 30 s prior to 5 min reactions initiated by exposing samples to light followed by addition of 5 μM ATP supplemented with radioactive [γ-^32P]-ATP at 60 Ci/mmol (PerkinElmer Life Sciences) at room temperature. […] Reactions were quenched with 4X SDS loading buffer, separated in SDS-PAGE, dried, and read by phosphorimaging and then quantified via a Personal Molecular Imager and Quantity One 1-D Analysis Software. Data were analyzed via GraphPad Prism (GraphPad Software, Inc), and three-parameter dose-dependent curves (Hill coefficient = −1) plotting phosphate transferred against inhibitor concentration were used for the calculation of IC50 values. At least three replicates were obtained to calculate the mean and standard deviation of IC50 values. See Figure S4 for representative raw and processed data.

GRK6 = target: T4, GRK6 (Homo sapiens, UniProt P43250, C561S/C562S/C565S); assay: as above; format: biochemical; details: substrate tubulin; for IC50: mean ± SD
T4 construct: Full-length WT GRK5, GRK2, or GRK6 at a final concentration of 2 μM; made in house; host or cells: Sf9 insect cells

[1] = IC50 no K3Cit vs with 2 mM K3Cit, substrate tubulin
[2] = IC50 no K3Cit vs with 6 mM K3Cit, substrate Rho* in ROS
[3] = read-out: IC50 (no K3Cit), substrate Rho* in ROS, without K3Cit, mean and SD
[4] = read-out: IC50 (no K3Cit), substrate tubulin, without K3Cit, mean and SD

T4 sequence (P43250 whole entry C561S/C562S/C565S): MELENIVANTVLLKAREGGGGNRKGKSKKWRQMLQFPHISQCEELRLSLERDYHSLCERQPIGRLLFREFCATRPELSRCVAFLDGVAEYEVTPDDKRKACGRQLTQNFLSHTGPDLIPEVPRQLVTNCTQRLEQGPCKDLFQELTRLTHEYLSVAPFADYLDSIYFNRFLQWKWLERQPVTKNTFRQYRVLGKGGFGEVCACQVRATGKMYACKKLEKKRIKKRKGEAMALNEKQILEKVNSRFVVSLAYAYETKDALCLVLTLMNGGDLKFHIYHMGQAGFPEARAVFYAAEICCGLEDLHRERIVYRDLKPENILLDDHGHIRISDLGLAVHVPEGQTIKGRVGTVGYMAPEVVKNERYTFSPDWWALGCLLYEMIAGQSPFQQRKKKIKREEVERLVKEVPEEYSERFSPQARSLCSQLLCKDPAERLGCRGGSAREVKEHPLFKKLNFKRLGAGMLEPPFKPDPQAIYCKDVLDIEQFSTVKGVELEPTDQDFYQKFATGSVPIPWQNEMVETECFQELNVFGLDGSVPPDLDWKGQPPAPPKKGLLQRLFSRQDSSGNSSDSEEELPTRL
T1 sequence (P34947 whole entry, the tested form may be a part): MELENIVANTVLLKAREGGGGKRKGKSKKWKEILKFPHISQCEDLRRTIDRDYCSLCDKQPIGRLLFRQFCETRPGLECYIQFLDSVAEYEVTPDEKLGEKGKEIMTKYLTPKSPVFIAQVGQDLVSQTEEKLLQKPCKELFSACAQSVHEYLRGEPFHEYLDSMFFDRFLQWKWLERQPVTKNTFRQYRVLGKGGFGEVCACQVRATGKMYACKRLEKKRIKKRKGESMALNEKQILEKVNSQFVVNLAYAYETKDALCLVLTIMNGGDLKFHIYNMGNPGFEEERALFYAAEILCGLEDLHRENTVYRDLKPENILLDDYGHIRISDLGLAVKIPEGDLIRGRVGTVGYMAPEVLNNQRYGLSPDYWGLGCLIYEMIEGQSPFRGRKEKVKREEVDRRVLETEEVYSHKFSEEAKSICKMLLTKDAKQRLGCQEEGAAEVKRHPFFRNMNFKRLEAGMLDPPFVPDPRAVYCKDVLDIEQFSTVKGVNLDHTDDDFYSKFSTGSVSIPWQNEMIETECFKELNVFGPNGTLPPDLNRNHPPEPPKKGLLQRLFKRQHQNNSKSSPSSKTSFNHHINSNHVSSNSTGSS
T2 sequence (P34947 whole entry, the tested form may be a part): as above

Row | Structure (SMILES) | Fold-change (human GRK5WT; [1]) | Fold-change (human GRK5WT; [2]) | increase of Tm of GRK5 upon ligand binding (GRK5) | GRK2 (Hill slope) (GRK2) | IC50 (GRK2) [µM] | GRK6 (Hill slope) (GRK6) | IC50 (GRK6) [µM] | effect of salt on Tm of ATP·Mg2+-bound GRK5 (GRK5; in the presence of ATP·Mg2+) | effect of salt on Tm of GRK5 (GRK5) | also measured
1 | Nc1ncnc2c1ncn2[C@@H]1O[C@H](COP(=O)(O)O)[C@@H](O)[C@H]1O [AMP] | 1.5 | 2 | does not stabilize GRK5 as much as Sgv | – | – | – | – | – | – | change in inhibition potency caused by K3Cit (human GRK5WT): did not cause changes; IC50 (human GRK5WT; [3]): 1000 ± 100 µM; IC50 (human GRK5WT; [4]): 700 ± 200 µM
2 | Nc1ncnc2c1ncn2[C@@H]1O[C@H](COP(=O)(O)OP(=O)(O)O)[C@@H](O)[C@H]1O [ADP] | 3 | 1.5 | – | – | – | – | – | – | – | change in inhibition potency caused by K3Cit (human GRK5WT): did not cause changes; IC50 (human GRK5WT; [3]): 56 ± 6 µM; IC50 (human GRK5WT; [4]): 28 ± 1 µM
3 | [Cl-].[K+] [KCl] | – | – | – | −1.6 | 20000 ± 2000 | −2.3 | 14000 ± 4000 | decreased | did not increase GRK5 stability at any concentration | lower potency than the corresponding citrate salts (human GRK5WT; GRK5, tubulin as the substrate): about 35 fold; GRK5 (Hill slope) (human GRK5WT; substrate Rho* (LMNG)): −1.6; IC50 (human GRK5WT; substrate Rho* (LMNG), mean ± SD, read-out: GRK5 IC50): 11000 ± 2000 µM; GRK5 (Hill slope) (human GRK5WT; substrate Rho* (ROS)): −1.9; IC50 (human GRK5WT; substrate Rho* (ROS), mean ± SD, read-out: GRK5 IC50): 18000 ± 10000 µM; GRK5 (Hill slope) (human GRK5WT; substrate tubulin): −1.7; IC50 (human GRK5WT; substrate tubulin, mean ± SD, read-out: GRK5 IC50): 55000 ± 6000 µM
4 | Nc1ncnc2c1ncn2[C@@H]1O[C@H](COP(=O)(O)OP(=O)([O-])OP(=O)([O-])O)[C@@H](O)[C@H]1O.[Mg+2] [ATP·Mg^2+] | – | – | 9 °C | – | – | – | – | – | – | –
5 | O=C([O-])CC(O)(CC(=O)[O-])C(=O)[O-].[Na+].[Na+].[Na+] [Na3Cit, sodium citrate] | – | – | – | −1.6 | 700 ± 200 | −1.2 | 1300 ± 900 | – | – | –
6 | NC(=O)c1cn([C@@H]2O[C@H](CO)[C@@H](O)[C@H]2O)c2ncnc(N)c12 [Sgv, sangivamycin] | 8 | 6 | 5 °C | – | – | – | – | – | – | reduction of the apparent IC50 by K3Cit (human GRK5WT; GRK5 phosphorylation of tubulin, 2 mM K3Cit): eightfold; IC50 (human GRK5WT; IC50 (no K3Cit), substrate Rho* in ROS, without K3Cit, mean and SD): 4.5 ± 0.5 µM; IC50 (human GRK5WT; IC50 (no K3Cit), substrate tubulin, without K3Cit, mean and SD): 11 ± 3 µM; increase of potency of inhibition by K3Cit (human GRK5WT; tubulin and receptor Rho* phosphorylation): ~8 fold
7 | O.O=C([O-])CC(O)(CC(=O)[O-])C(=O)[O-].[K+].[K+].[K+] [K3Cit, potassium citrate tribasic monohydrate] | – | – | – | −1.3 | 800 ± 500 | −0.9 | 900 ± 500 | biphasic behavior | raised the Tm of GRK5 proportionally | decrease of Tm of GRK5 (GRK5; in the presence of ATP·Mg2+, 20 mM K3Cit): 2 to 3 °C; effect of salt on Tm of Sgv-bound GRK5 (GRK5; in the presence of Sgv): further increased
8 | [Cl-].[Na+] [NaCl] | – | – | – | −1.2 | 21000 ± 2000 | −1.3 | 8000 ± 7000 | decreased | reduced it | –
